Patent US5326882A, “Chemiluminescent 3-(substituted Adamant-2'-Ylidene) 1,2-dioxetanes” (Tropix, Inc., priority 1992, dated 1994)

Legend:
alkaline phosphatase [1] = target: T1, alkaline phosphatase (Bos taurus, UniProt P19111); experiment: Half-time to plateau at low alkaline phosphatase concentration (Example XLI); assay type: biochemical; conditions: 0.4 mM dioxetane at pH 10.0; 31.5° C.; 2.53 × 10^-13 M alkaline phosphatase; listed as HO-AMPPD-B
alkaline phosphatase [2] = target: T1, alkaline phosphatase; experiment: Chemiluminescent signal and signal:background with enhancer polymers (Example XVII); assay type: biochemical
Description: Four sets of three tubes each, each tube in each set containing 450 μl of a 0.4 mM aqueous solution of one of the four 1,2-dioxetanes being compared in 0.1M diethanolamine containing 1 mM magnesium chloride, 0.02% sodium azide and 0.1% of the enhancer polymer, pH 10.0 (substrate buffer) were prepared and the background signal from each tube measured using a Berthold LB 952T luminometer (Berthold Instruments; Wildbad, Federal Republic of Germany).
Next, 50 μl of an aqueous solution, 2.83×10^-12 M of alkaline phosphatase in 0.1M diethanolamine containing 1 mM magnesium chloride, 0.02% sodium azide, pH 10.0, (final enzyme concentration 2.83×10^-13 M) was added to each tube and the chemiluminescent signals were measured in the luminometer at 5 and 20 minutes. The intensity of the chemiluminescent signals and the signal: background ratios obtained for each of the four 1,2-dioxetanes in the presence of the enhancer polymers are shown in Table III below.
The enhancer polymers used, and the symbols for such polymers used in Table III, were the following: […]

T1 sequence (P19111 20-506 limits assumed): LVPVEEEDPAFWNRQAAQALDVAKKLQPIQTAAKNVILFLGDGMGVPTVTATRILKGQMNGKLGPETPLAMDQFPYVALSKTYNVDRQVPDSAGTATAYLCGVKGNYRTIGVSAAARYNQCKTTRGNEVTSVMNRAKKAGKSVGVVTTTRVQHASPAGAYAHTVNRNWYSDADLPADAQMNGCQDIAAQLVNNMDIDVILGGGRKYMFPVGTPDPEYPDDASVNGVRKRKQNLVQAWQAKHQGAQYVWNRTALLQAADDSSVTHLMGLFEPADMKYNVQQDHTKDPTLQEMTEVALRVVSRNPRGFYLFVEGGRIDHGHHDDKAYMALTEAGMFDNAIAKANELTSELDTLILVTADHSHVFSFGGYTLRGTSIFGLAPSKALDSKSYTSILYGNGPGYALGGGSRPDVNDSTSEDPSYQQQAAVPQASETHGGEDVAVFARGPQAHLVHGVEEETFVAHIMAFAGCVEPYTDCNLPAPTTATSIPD

Structure (SMILES): COC1(c2cccc(OP(=O)(O)O)c2)OOC12C1CC3CC2CC(O)(C3)C1 (single isomer, unassigned) [B-OH-AMPPD, disodium 3-(4-methoxyspiro-[1,2-dioxetane-3,2'-(5'-hydroxy)tricyclo[3.3.1.1^3,7]decan]-4-yl)phenyl phosphate]
- HALF-TIME TO PLATEAU (min.) AL LOW ALK PHOS CONCENTRATION (alkaline phosphatase [1]): 1.03 min
- S/N (alkaline phosphatase [2]; polymer BAEDM, 5 min): 25.4
- SIGNAL (alkaline phosphatase [2]; polymer BAEDM, 5 min): 4101.3
- S/N (alkaline phosphatase [2]; polymer BAEDM, 20 min): 34.3
- SIGNAL (alkaline phosphatase [2]; polymer BAEDM, 20 min): 5538.2
- S/N (alkaline phosphatase [2]; polymer BAEDM, time 0): 1.0
- SIGNAL (alkaline phosphatase [2]; polymer BAEDM, time 0 (background, before enzyme)): 161.4
- S/N (alkaline phosphatase [2]; polymer BZ, 5 min): 18.8
- SIGNAL (alkaline phosphatase [2]; polymer BZ, 5 min): 2246.4
- S/N (alkaline phosphatase [2]; polymer BZ, 20 min): 22.4
- SIGNAL (alkaline phosphatase [2]; polymer BZ, 20 min): 2669.2
- S/N (alkaline phosphatase [2]; polymer BZ, time 0): 1.0
- SIGNAL (alkaline phosphatase [2]; polymer BZ, time 0 (background, before enzyme)): 119.4
- S/N (alkaline phosphatase [2]; polymer DAA TMQ, 5 min): 40.3
- SIGNAL (alkaline phosphatase [2]; polymer DAA TMQ, 5 min): 5486.8
- S/N (alkaline phosphatase [2]; polymer DAA TMQ, 20 min): 49.0
- SIGNAL (alkaline phosphatase [2]; polymer DAA TMQ, 20 min): 6670.3
- S/N (alkaline phosphatase [2]; polymer DAA TMQ, time 0): 1.0
- SIGNAL (alkaline phosphatase [2]; polymer DAA TMQ, time 0 (background, before enzyme)): 136.0
- S/N (alkaline phosphatase [2]; polymer DME(OH)B, 5 min): 20.0
- SIGNAL (alkaline phosphatase [2]; polymer DME(OH)B, 5 min): 2640.9
- S/N (alkaline phosphatase [2]; polymer DME(OH)B, 20 min): 30.2
- SIGNAL (alkaline phosphatase [2]; polymer DME(OH)B, 20 min): 3990.6
- S/N (alkaline phosphatase [2]; polymer DME(OH)B, time 0): 1.0
- SIGNAL (alkaline phosphatase [2]; polymer DME(OH)B, time 0 (background, before enzyme)): 132.1
- S/N (alkaline phosphatase [2]; polymer DMEB, 5 min): 35.7
- SIGNAL (alkaline phosphatase [2]; polymer DMEB, 5 min): 4451.6
- S/N (alkaline phosphatase [2]; polymer DMEB, 20 min): 48.3
- SIGNAL (alkaline phosphatase [2]; polymer DMEB, 20 min): 6023.9
- S/N (alkaline phosphatase [2]; polymer DMEB, time 0): 1.0
- SIGNAL (alkaline phosphatase [2]; polymer DMEB, time 0 (background, before enzyme)): 124.6
- S/N (alkaline phosphatase [2]; polymer DMQ TEQ, 5 min): 63.3
- SIGNAL (alkaline phosphatase [2]; polymer DMQ TEQ, 5 min): 9213.8
- S/N (alkaline phosphatase [2]; polymer DMQ TEQ, 20 min): 57.0
- SIGNAL (alkaline phosphatase [2]; polymer DMQ TEQ, 20 min): 8288.0
- S/N (alkaline phosphatase [2]; polymer DMQ TEQ, time 0): 1.0
- SIGNAL (alkaline phosphatase [2]; polymer DMQ TEQ, time 0 (background, before enzyme)): 145.5
- S/N (alkaline phosphatase [2]; polymer MPB, 5 min): 71.5
- SIGNAL (alkaline phosphatase [2]; polymer MPB, 5 min): 10021.3
- S/N (alkaline phosphatase [2]; polymer MPB, 20 min): 78.0
- SIGNAL (alkaline phosphatase [2]; polymer MPB, 20 min): 10939.0
- S/N (alkaline phosphatase [2]; polymer MPB, time 0): 1.0
- SIGNAL (alkaline phosphatase [2]; polymer MPB, time 0 (background, before enzyme)): 140.3
- S/N (alkaline phosphatase [2]; polymer NONE, 5 min): 26.3
- SIGNAL (alkaline phosphatase [2]; polymer NONE, 5 min, enzyme 2.83×10^-13 M): 3314.8
- S/N (alkaline phosphatase [2]; polymer NONE, 20 min): 29.8
- SIGNAL (alkaline phosphatase [2]; polymer NONE, 20 min, enzyme 2.83×10^-13 M): 3767.9
- S/N (alkaline phosphatase [2]; polymer NONE, time 0): 1.0
- SIGNAL (alkaline phosphatase [2]; polymer NONE, time 0 (background, before enzyme)): 126.3
- S/N (alkaline phosphatase [2]; polymer S/TMQ(1:2), 5 min): 20.6
- SIGNAL (alkaline phosphatase [2]; polymer S/TMQ(1:2), 5 min): 3305.1
- S/N (alkaline phosphatase [2]; polymer S/TMQ(1:2), 20 min): 35.7
- SIGNAL (alkaline phosphatase [2]; polymer S/TMQ(1:2), 20 min): 5722.3
- S/N (alkaline phosphatase [2]; polymer S/TMQ(1:2), time 0): 1.0
- SIGNAL (alkaline phosphatase [2]; polymer S/TMQ(1:2), time 0 (background, before enzyme)): 160.3
- S/N (alkaline phosphatase [2]; polymer S/TMQ(1:4), 5 min): 35.6
- SIGNAL (alkaline phosphatase [2]; polymer S/TMQ(1:4), 5 min): 4775.3
- S/N (alkaline phosphatase [2]; polymer S/TMQ(1:4), 20 min): 53.1
- SIGNAL (alkaline phosphatase [2]; polymer S/TMQ(1:4), 20 min): 7120.3
- S/N (alkaline phosphatase [2]; polymer S/TMQ(1:4), time 0): 1.0
- SIGNAL (alkaline phosphatase [2]; polymer S/TMQ(1:4), time 0 (background, before enzyme)): 134.0
- SIGNAL (alkaline phosphatase [2]; polymer SAPPHIRE (BDMQ), time 0 (background, before enzyme)): 138.8
- S/N (alkaline phosphatase [2]; polymer SAPPHIRE, 5 min): 78.6
- SIGNAL (alkaline phosphatase [2]; polymer SAPPHIRE, 5 min): 10908.4
- S/N (alkaline phosphatase [2]; polymer SAPPHIRE, 20 min): 105.3
- SIGNAL (alkaline phosphatase [2]; polymer SAPPHIRE, 20 min): 14625.4
- S/N (alkaline phosphatase [2]; polymer SAPPHIRE, time 0): 1.0
- S/N (alkaline phosphatase [2]; polymer TBQ, 5 min): 97.6
- SIGNAL (alkaline phosphatase [2]; polymer TBQ, 5 min): 15508.5
- S/N (alkaline phosphatase [2]; polymer TBQ, 20 min): 131.1
- SIGNAL (alkaline phosphatase [2]; polymer TBQ, 20 min): 20830.8
- S/N (alkaline phosphatase [2]; polymer TBQ, time 0): 1.0
- SIGNAL (alkaline phosphatase [2]; polymer TBQ, time 0 (background, before enzyme)): 158.9
- S/N (alkaline phosphatase [2]; polymer TEQ, 5 min): 61.8
- SIGNAL (alkaline phosphatase [2]; polymer TEQ, 5 min): 8806.2
- S/N (alkaline phosphatase [2]; polymer TEQ, 20 min): 81.1
- SIGNAL (alkaline phosphatase [2]; polymer TEQ, 20 min): 11563.4
- S/N (alkaline phosphatase [2]; polymer TEQ, time 0): 1.0
- SIGNAL (alkaline phosphatase [2]; polymer TEQ, time 0 (background, before enzyme)): 142.6
- S/N (alkaline phosphatase [2]; polymer TMQ, 5 min): 49.8
- SIGNAL (alkaline phosphatase [2]; polymer TMQ, 5 min): 6258.9
- S/N (alkaline phosphatase [2]; polymer TMQ, 20 min): 70.5
- SIGNAL (alkaline phosphatase [2]; polymer TMQ, 20 min): 8857.8
- S/N (alkaline phosphatase [2]; polymer TMQ, time 0): 1.0
- SIGNAL (alkaline phosphatase [2]; polymer TMQ, time 0 (background, before enzyme)): 125.7
